{
  "source": "patent US12318361B2",
  "about": "“Methods for treating cardiovascular diseases” (Olatec Therapeutics LLC, priority 2017, dated 2025)",
  "system": "male CD-1 mice, experimental AMI",
  "experiment": "Experimental mouse AMI model (30 min ischemia, 24 h reperfusion), dose response and delayed dosing, Example 9",
  "type": "in vivo",
  "settings": "for Infarct size, Change (%) relative to saline group / Infarct size, mean: 24 h; for AWDT, mean / AWST, mean / LVEDD, mean / LVEF, mean / LVESD, mean / LVFS, mean / PWDT, mean / PWST, mean: echo at 24 h",
  "experimental": "Objectives: To determine the efficacy of, (1) a single dose of OLT1177™ (6, 60 and 600 mg/kg) administered at the time of reperfusion (Part A) and, (2) a single dose of 60 mg/kg OLT1177™ administered 60, 120 or 180 minutes after reperfusion in an experimental mouse AMI model.\nMethodology: Male CD-1 mice underwent transient surgical ligation of the left coronary artery for 30 minutes followed by reperfusion for 24 hours. A single dose of OLT1177™ (6, 60, or 600 mg/kg) or matching vehicle was administered intraperitoneally (IP) at time of reperfusion (N=5-9/group, Study Part A) or OLT1177™ (60 mg/kg) after a 60-, 120- or 180-minute delay (N=4-7/group, Study Part B). Echocardiography was performed to measure left ventricular (LV) fractional shortening (FS). Infarct size was measured at pathology by triphenyl-tetrazolium-chloride (TTC) and phthalo blue staining and expressed as a percentage of the myocardium at risk.\nFor the 60-mg/kg dose, OLT1177™ (13 mg/vial) was diluted in 0.65 ml of 0.9% of normal saline solution to reach a concentration of 20 mg/ml. For the 6 mg/kg dose, the 20 mg/ml dose was diluted 10 times (0.1 ml OLT1177™ […]+0.9 ml 0.9% normal saline) to reach a final concentration of 2 mg/ml. For the 600 mg/kg dose, each vial of OLT1177™ (13 mg/vial) was diluted with 0.1 ml of saline, to reach a final concentration of 130 mg/ml. The content of multiple vials was combined. Each respective tube was subjected to a vortex and heating at 37° C. until complete dissolution of the drug substance.\nMale mice were dosed with OLT1177™ by the intraperitoneal route at dose levels of 6, 60, or 600 mg/kg (each approximately 33 g mouse received 100 μl of the dosing solution; 150 μl for the higher dose) after the reperfusion was confirmed (Study Part A). In Part B, 60 mg/kg OLT1177™ was injected (100 μl of the dosing solution per mouse) with a delay of 60, 120 or 180 minutes from the time of reperfusion.\nAdult out-bred male CD1 mice (8-10 weeks of age) were supplied by Envigo (Indianapolis, IN). A single operator performed all surgeries. Experimental AMI was induced by transient coronary artery ligation for 30 minutes to induce ischemia of the anterior wall and the apex (visible as pallor) followed by reperfusion, and leading to an infarct involving approximately 15% of the left ventricle. Mice were deeply sedated with sodium pentobarbital (70 mg/kg), intubated using a 23 G catheter and placed in the right lateral decubitus. The mice were shaved and the skin was cleaned with povidone solution and isopropyl alcohol. The mice were then connected to a ventilator and a left thoracotomy was performed followed by pericardiectomy and ligation of the proximal left coronary artery. A 1-mm diameter polyethylene tube was inserted inside the ligature knot, secured and left in place to obstruct the coronary flow for 30 minutes. At the end of the ischemic time, the tube was removed and the coronary flow re-establishment was observed. At this time, OLT1177™ at a dose of 6, 60 or 600 mg/kg, or the normal saline (0.9% NaCl) used as vehicle (0.1 ml of total volume) was injected into the peritoneal cavity after the reperfusion was confirmed (Part A). After closure of the thoracic access, the mice were left to recover for 24 hours. Pain management was achieved using buprenorphine (Buprenorphine SR™ Lab, 0.5 mg/kg) injected subcutaneously. For Study Part B, groups of mice were injected with 60 mg/kg of OLT1177™ after 60, 120 or 180 minutes from the moment of reperfusion.\nBefore sacrifice (24 hours after reperfusion), the mice underwent transthoracic echocardiography under mild anesthesia with sodium pentobarbital (50 mg/kg). Echocardiography was performed with the Vevo770 Imaging System (VisualSonics Inc, Toronto, Ontario, Canada) and a 30 MHz probe. The heart was visualized in B-mode from the parasternal short axis and apical views. The left ventricular (LV) end-diastolic diameter (LVEDD) and LV end-systolic diameters (LVESD) at M-Mode were measured. […]",
  "key": {"[1]": {"settings": "6 mg/kg IP at time of reperfusion (Group 2)"}, "[2]": {"settings": "60 mg/kg IP administered at 60 minutes (Group 5)"}, "[3]": {"settings": "60 mg/kg IP administered at 120 minutes (Group 6)"}, "[4]": {"settings": "60 mg/kg IP at time of reperfusion (Group 3)"}, "[5]": {"settings": "60 mg/kg IP, Group 7 (N = 4), head prints Administered at 120 Minutes"}, "[6]": {"settings": "60 mg/kg IP, treatment delay of 60 or 120 minutes, p<0.01"}, "[7]": {"settings": "600 mg/kg IP at time of reperfusion (Group 4)"}, "[8]": {"settings": "all doses (6, 60, 600 mg/kg) at reperfusion, 24 h after reperfusion, p<0.05"}},
  "data": [
    {"smiles": "CS(=O)(=O)CCC#N", "note": "[OLT1177™, 3-methanesulfonyl-propionitrile]", "values": [
      {"measurement": "Infarct size, Change (%) relative to saline group", "setting": "[1]", "value": "−36", "unit": "%"},
      {"measurement": "AWDT, mean", "setting": "[1]", "value": 0.79, "unit": "mm"},
      {"measurement": "AWST, mean", "setting": "[1]", "value": 1.10, "unit": "mm"},
      {"measurement": "LVEDD, mean", "setting": "[1]", "value": 3.71, "unit": "mm"},
      {"measurement": "LVEF, mean", "setting": "[1]", "value": 61.4, "unit": "%"},
      {"measurement": "LVESD, mean", "setting": "[1]", "value": 2.52, "unit": "mm"},
      {"measurement": "LVFS, mean", "setting": "[1]", "value": 32.2, "unit": "%"},
      {"measurement": "PWDT, mean", "setting": "[1]", "value": 0.86, "unit": "mm"},
      {"measurement": "PWST, mean", "setting": "[1]", "value": 1.12, "unit": "mm"},
      {"measurement": "Infarct size, mean", "setting": "6 mg/kg IP single dose at time of reperfusion (Group 2)", "value": 9.9, "unit": "%"},
      {"measurement": "infarct size (in words)", "setting": "60 mg/kg IP administered 120 or 180 minutes after reperfusion", "value": "not significantly altered"},
      {"measurement": "AWDT, mean", "setting": "[2]", "value": 0.85, "unit": "mm"},
      {"measurement": "AWST, mean", "setting": "[2]", "value": 1.18, "unit": "mm"},
      {"measurement": "LVEDD, mean", "setting": "[2]", "value": 4.00, "unit": "mm"},
      {"measurement": "LVEF, mean", "setting": "[2]", "value": 65.3, "unit": "%"},
      {"measurement": "LVESD, mean", "setting": "[2]", "value": 2.59, "unit": "mm"},
      {"measurement": "LVFS, mean", "setting": "[2]", "value": 35.5, "unit": "%"},
      {"measurement": "PWDT, mean", "setting": "[2]", "value": 0.89, "unit": "mm"},
      {"measurement": "PWST, mean", "setting": "[2]", "value": 1.33, "unit": "mm"},
      {"measurement": "Infarct size, mean", "setting": "60 mg/kg IP administered at 60 minutes after reperfusion (Group 5)", "value": 4.4, "unit": "%"},
      {"measurement": "AWDT, mean", "setting": "[3]", "value": 0.83, "unit": "mm"},
      {"measurement": "AWST, mean", "setting": "[3]", "value": 1.20, "unit": "mm"},
      {"measurement": "LVEDD, mean", "setting": "[3]", "value": 4.07, "unit": "mm"},
      {"measurement": "LVEF, mean", "setting": "[3]", "value": 63.6, "unit": "%"},
      {"measurement": "LVESD, mean", "setting": "[3]", "value": 2.68, "unit": "mm"},
      {"measurement": "LVFS, mean", "setting": "[3]", "value": 34.1, "unit": "%"},
      {"measurement": "PWDT, mean", "setting": "[3]", "value": 0.87, "unit": "mm"},
      {"measurement": "PWST, mean", "setting": "[3]", "value": 1.26, "unit": "mm"},
      {"measurement": "Infarct size, mean", "setting": "60 mg/kg IP administered at 120 minutes after reperfusion (Group 6)", "value": 11.1, "unit": "%"},
      {"measurement": "Infarct size, mean", "setting": "60 mg/kg IP administered at 180 minutes after reperfusion (Group 7)", "value": 15.4, "unit": "%"},
      {"measurement": "reducing infarct size and preserving LV function, compared with treatment given with no delay", "setting": "60 mg/kg IP after a 60 minutes delay after reperfusion", "value": "equally effective"},
      {"measurement": "Infarct size, Change (%) relative to saline group", "setting": "[4]", "value": "−67", "unit": "%"},
      {"measurement": "AWDT, mean", "setting": "[4]", "value": 0.82, "unit": "mm"},
      {"measurement": "AWST, mean", "setting": "[4]", "value": 1.25, "unit": "mm"},
      {"measurement": "LVEDD, mean", "setting": "[4]", "value": 4.25, "unit": "mm"},
      {"measurement": "LVEF, mean", "setting": "[4]", "value": 59.3, "unit": "%"},
      {"measurement": "LVESD, mean", "setting": "[4]", "value": 2.93, "unit": "mm"},
      {"measurement": "LVFS, mean", "setting": "[4]", "value": 31.0, "unit": "%"},
      {"measurement": "PWDT, mean", "setting": "[4]", "value": 0.86, "unit": "mm"},
      {"measurement": "PWST, mean", "setting": "[4]", "value": 1.24, "unit": "mm"},
      {"measurement": "Infarct size, mean", "setting": "60 mg/kg IP single dose at time of reperfusion (Group 3)", "value": 5.1, "unit": "%"},
      {"measurement": "AWDT, mean", "setting": "[5]", "value": 0.95, "unit": "mm"},
      {"measurement": "AWST, mean", "setting": "[5]", "value": 1.22, "unit": "mm"},
      {"measurement": "LVEDD, mean", "setting": "[5]", "value": 3.88, "unit": "mm"},
      {"measurement": "LVEF, mean", "setting": "[5]", "value": 51.5, "unit": "%"},
      {"measurement": "LVESD, mean", "setting": "[5]", "value": 2.87, "unit": "mm"},
      {"measurement": "LVFS, mean", "setting": "[5]", "value": 26.0, "unit": "%"},
      {"measurement": "PWDT, mean", "setting": "[5]", "value": 0.94, "unit": "mm"},
      {"measurement": "PWST, mean", "setting": "[5]", "value": 1.31, "unit": "mm"},
      {"measurement": "LV ejection fraction in comparison to vehicle-treated mice (in words)", "setting": "[6]", "value": "significantly improved"},
      {"measurement": "LV fractional shortening in comparison to vehicle-treated mice (in words)", "setting": "[6]", "value": "significantly improved"},
      {"measurement": "drop in fractional shortening (in words)", "setting": "60 mg/kg IP, treatment delay of 180 minutes", "value": "failed to prevent the drop"},
      {"measurement": "Infarct size, Change (%) relative to saline group", "setting": "[7]", "value": "−61", "unit": "%"},
      {"measurement": "AWDT, mean", "setting": "[7]", "value": 0.77, "unit": "mm"},
      {"measurement": "AWST, mean", "setting": "[7]", "value": 1.06, "unit": "mm"},
      {"measurement": "LVEDD, mean", "setting": "[7]", "value": 3.76, "unit": "mm"},
      {"measurement": "LVEF, mean", "setting": "[7]", "value": 61.6, "unit": "%"},
      {"measurement": "LVESD, mean", "setting": "[7]", "value": 2.54, "unit": "mm"},
      {"measurement": "LVFS, mean", "setting": "[7]", "value": 33.0, "unit": "%"},
      {"measurement": "PWDT, mean", "setting": "[7]", "value": 0.83, "unit": "mm"},
      {"measurement": "PWST, mean", "setting": "[7]", "value": 1.14, "unit": "mm"},
      {"measurement": "Infarct size, mean", "setting": "600 mg/kg IP single dose at time of reperfusion (Group 4)", "value": 6.0, "unit": "%"},
      {"measurement": "infarct size vs vehicle (in words)", "setting": "6, 60 and 600 mg/kg single IP injection at time of reperfusion, p<0.001", "value": "significant reduction"},
      {"measurement": "LV ejection fraction relative to vehicle control (in words)", "setting": "[8]", "value": "significantly higher"},
      {"measurement": "LV fractional shortening relative to vehicle control (in words)", "setting": "[8]", "value": "significantly higher"},
      {"measurement": "decrease in mean infarct size compared to the vehicle control", "setting": "high dose 600 mg/kg IP at time of reperfusion", "value": "more than 60%"},
      {"measurement": "decrease in infarct size compared to the vehicle control", "setting": "low dose 6 mg/kg IP at time of reperfusion", "value": 36, "unit": "%"},
      {"measurement": "decrease in mean infarct size compared to the vehicle control", "setting": "mid dose 60 mg/kg IP at time of reperfusion", "value": "more than 60%"}
    ]}
  ]
}
